The target in this experiment is T1, OST3 complex (Saccharomyces cerevisiae, UniProt P39007).
T1 construct: were purified separately from strains expressing only one type of complex; made in house; host or cells: Saccharomyces cerevisiae, BY4742-derived strain ost6::LEU2MX6 OST4-1D4::kanMX6 YEp352-OST3
The experiment can be described thus: In vitro glycosylation assay, kinetic parameters for synthetic LLOs, OST3 complex. The experiment is classed as biochemical. An excerpt: Synthetic LLO substrates all have two GlcNAcs as the sugar moiety, followed by pyrophosphate and lipid moieties (−R) of variable stereochemistry and length, denoted by the carbon chain length. C10, (S)-citronellyl; C15, farnesyl; C20, (S)-citronellylneryl; C25, (S)-citronellylfarnesyl; C90, represents the natural yeast dolichol lipid tail structure where n = 15. Figure modified from Ramirez et al. 2017 ([42]). B, quantification of kinetic parameters for the synthetic LLOs. Reactions were performed with 0.1 μM purified OST3 complex, 25 μM peptide TAMRA-YANATS, and varying concentrations of the different synthetic LLOs. Glycopeptide product was measured by UPLC and turnover rates were determined from the linear initial phase of the reaction. The mean of three reactions is shown and the data were fitted by nonlinear regression according to the Michaelis–Menten formula (R^2 = 0.9842 (LLO C15), 0.9685 (LLO C20), 0.9261 (LLO C25)) using Prism. Error bars indicate standard deviations from the mean (n = 3).
Concentrations of reactive LLO analogs were determined by in vitro glycosylation (see below) by titrating varying amounts of LLO against a known amount of fluorescently labeled peptide. Concentrations of nonreactive LLO analogs were determined by in vitro glycosylation by titrating varying amounts of nonreactive LLO while using known amounts of both fluorescently labeled peptide and active LLO analog.
Reactions were performed in a total volume of 10 μl containing the specified amount of TAMRA-labeled peptide, synthetic LLO analog, 10 mM MnCl2, and purified OST after size-exclusion chromatography in purification buffer (50 mM Hepes, pH 7.5, 150 mM NaCl, 1 mM MgCl2, 1 mM MnCl2, 10% (v/v) glycerol, 0.03% (w/v) DDM, and 0.006% (w/v) CHS). The concentration of OST was calculated using the molecular weight of 280 kDa. The reaction mixture was preincubated at 30 °C for 5 min before adding the peptide to start the reaction that proceeded at 30 °C. Time points were taken such that the reaction was in the linear phase. […]
Samples were analyzed by reverse-phase chromatography using a UPLC Dionex UltiMate 3000 with an Accucore 150-C18 100 × 2.1 mm 2.6 μm column (Thermo Fisher Scientific). One microliter sample (2 pmol of peptide) was injected and measured by isocratic elution using a certain proportion of ACN (15% ACN for peptide TAMRA-DANYTK; 20% ACN for peptide TAMRA-YANATS) in 10 mM KPO4, pH 8.0 buffer so that the glycopeptide and peptide are fully separated and elute within 3 min at a constant flow rate of 0.7 ml/min, with a column temperature of 45 °C. The peptide and glycopeptide were detected through TAMRA fluorescence (excitation wavelength: 546 nm; emission wavelength: 579 nm).
The UPLC profiles were analyzed by integrating the peaks corresponding to the glycopeptide and peptide using Chromeleon 7 (Dionex) and calculating the amount of glycopeptide formed using the following equation, as previously described ([43]): [GP]=PeakareaGP/PeakareaP+PeakareaGP×[P]
[GP] is the concentration of glycopeptide, Peak areaGP/P is the area under the curves measured for the glycopeptide or peptide, respectively, and [P] is the concentration of peptide at the start of the reaction. […] Unless specified otherwise, turnover rates were determined from the initial rates of reaction by taking into account the enzyme concentration in the reaction. […]

Regarding `CC(=O)N[C@H]1[C@@H](OP(=O)(O)OP(=O)(O)OC/C=C(\C)CC/C=C(\C)CCC=C(C)C)O[C@H](CO)[C@@H](O[C@@H]2O[C@H](CO)[C@@H](O)[C@H](O)[C@H]2NC(C)=O)[C@@H]1O` [LLO C15], the kcat/KM (0.1 μM purified OST3 complex, 25 μM TAMRA-YANATS) amounted to 0.02 min^-1 μM^−s1. In addition, the “kcat (apparent)” value (0.1 μM purified OST3 complex, 25 μM TAMRA-YANATS, varying LLO (C15 5–200, C20 5–150, C25 2–50 μM), 30 °C, n = 3) turned out to be 0.0283 ± 0.0017 s⁻¹. The Km (usually the substrate concentration at which the rate is half of its maximum) (0.1 μM purified OST3 complex, 25 μM TAMRA-YANATS, varying LLO (C15 5–200, C20 5–150, C25 2–50 μM), 30 °C, n = 3, read-out: KM (apparent)) came to 67.9 ± 6.7 µM. Moreover, where the note is “OST3 complex, from apparent KM”, the “apparent LLO affinity, in words” value is reported as “bound much less efficiently”.

Source of the values: article PMC8191290, “Substrate specificities and reaction kinetics of the yeast oligosaccharyltransferase isoforms” (The Journal of Biological Chemistry, 2021).
